Data set [1] relates to acne. As to conditions: 20% ALA acid applied to back for 3 hours, 150 J/cm2 broad band light; cited from earlier work.
The subject of data set [2] is acne. As to conditions: cream 16% wt. applied to face for 3 hours, non-coherent red light, repeated 2 weeks later; cited from earlier work.
A short description of data set [3]: Method A investigation of efficacy and inflammation with 30 min pulse exposure PDT. In kind it is in vivo. The procedure:
(§1) The formation of PPIX after 3 hours is seen in FIG. 8, and the relation to inflammation is seen in FIG. 9. […] The results are illustrated in Column 3 in FIGS. 4, 5, 6, and 7. […] Pain level is not changed.

The subject of another data set is PpIX fluorescence. The data set is described as follows: Metvix pulse time investigation (Method B) on healthy volunteers: PpIX fluorescence. As to conditions: short (30 min) pulse vs conventional 3-hour exposure; Table 1 and FIG. 8. It is filed as in vivo, human. The protocol: as §1
Twenty-four healthy male volunteers of Scandinavian ancestry were included in the study (mean age 30 years, range 20-51). A treatment area was selected on the inside of both forearms of the volunteer. Each treatment area was divided into four minor treatment fields of the size 2×5 cm with at least 3 cm between each field using a prefabricated flexible template. In order to imitate skin lesions all fields were tape stripped 10 times with occlusive dressing before treatment (Tegaderm™ Roll, 3M, Glostrup, Denmark). […]
All fields were covered with light-impermeable, occlusive dressing. […] During and after illumination pain was recorded. […]
5-MAL-induced PpIX fluorescence was depicted non-invasively using a fluorescence camera (Medeikonos AB, Gothenburg, Sweden). The amount of PpIX fluorescence was calculated from the photographs by the program MatLab® (MatLab®, MathWorks, Natic, US). The amount of fluorescence was measured before tape stripping and cream application (baseline) and before and after illumination.
The photo bleaching is then the difference in PpIX fluorescence (AU) calculated from the pre and post illumination images.

“Also recorded” adds a separate entry of the source. Like-named read-outs stand apart in the source and are kept apart here.

Take `NCC(=O)CCC(=O)O` [ALA, 5-amino-4-oxo-pentanoic acid]: in the data set on acne [1], the “efficacy in treatment of acne” value was “effective for the treatment of acne”; the “side effects of treatment” value is “erythema, hyperpigmentation and exfoliation were often seen after PDT treatment”.

With `COC(=O)CCC(=O)CN` [5-MAL, 5-ALA methyl ester], in the data set with acne [2], the “efficacy in treatment of acne” value is recorded as “effective in the treatment of acne”; the “side effects of treatment” value was “caused pain and induced severe inflammation”. For the same molecule, the “inflammation (erythema)” value in data set [3] (30 min pulse exposure vs conventional 180 min exposure, FIGS. 6, 7) is “less inflammation”. The pain level entry in data set [3] (30 min pulse exposure vs conventional exposure, FIG. 4) is on record as “not changed”. Also, in data set [3] (30 min pulse exposure vs conventional exposure, FIG. 5), the “cure rate / efficacy” value is “unchanged efficacy; also recorded: as efficient”. Further, the “PPIX concentration, pulse exposure versus conventional 3-hour exposure” value in the data set on PpIX fluorescence is “clearly lower than for the conventional 3 hour exposure”.

Values taken from US20160346392A1, “PULSE PHOTODYNAMIC TREATMENT OF SKIN CONDITIONS” (GALDERMA RESEARCH & DEVELOPMENT, priority 2013, published 2016).
